Structures are written as SMILES. Counter-ions that a name gives are not always drawn.

The assay addresses MYT1 protein (Homo sapiens (Human), UniProt Q99640). The assay is described as follows: Test for binding to ATP binding site of MYT1 (Kinase Tracer 178 / Eu-Anti-GST antibody TR-FRET). Particulars: ATP binding site of MYT1, 30 minutes at room temperature.

MYT1 protein, sequence (Q99640 whole entry): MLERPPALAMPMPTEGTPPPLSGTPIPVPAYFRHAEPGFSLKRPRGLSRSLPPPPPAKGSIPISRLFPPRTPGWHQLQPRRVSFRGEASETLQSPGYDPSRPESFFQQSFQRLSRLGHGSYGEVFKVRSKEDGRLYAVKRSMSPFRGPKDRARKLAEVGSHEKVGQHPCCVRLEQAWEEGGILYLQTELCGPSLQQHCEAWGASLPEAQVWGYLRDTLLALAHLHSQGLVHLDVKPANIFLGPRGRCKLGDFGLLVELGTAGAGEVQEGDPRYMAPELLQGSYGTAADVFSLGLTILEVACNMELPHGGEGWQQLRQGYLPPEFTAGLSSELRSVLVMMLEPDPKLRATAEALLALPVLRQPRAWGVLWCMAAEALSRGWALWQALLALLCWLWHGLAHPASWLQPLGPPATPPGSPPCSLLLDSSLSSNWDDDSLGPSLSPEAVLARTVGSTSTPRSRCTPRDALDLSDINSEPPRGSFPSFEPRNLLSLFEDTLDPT

`CC(C)Nc1cc2c(-c3ccc(F)c4[nH]ncc34)c(N)c(=O)[nH]c2c2nccnc12` [Compound G9, 8-Amino-7-(7-fluoro-1H-indazol-4-yl)-5-(propan-2-ylamino)-10H-pyrido[2,3-f]quinoxalin-9-one]: the IC50 was 4.4 nM.

`COc1cc2c(-c3ccc(F)c4[nH]ncc34)c(N)c(=O)[nH]c2c2nccnc12` [Compound G10, 8-Amino-7-(7-fluoro-1H-indazol-4-yl)-5-methoxy-10H-pyrido[2,3-f]quinoxalin-9-one] showed a half-maximal inhibitory concentration (IC50) of 2.2 nM.

`Nc1c(-c2ccc(F)c3[nH]ncc23)c2cc(OCC3CC3)c3nccnc3c2[nH]c1=O` [Compound G11, 8-Amino-5-(cyclopropylmethoxy)-7-(7-fluoro-1H-indazol-4-yl)-10H-pyrido[2,3-f]quinoxalin-9-one] displayed an IC50 of 2.5 nM.

`N#C[C@H]1C[C@H](Oc2cc3c(-c4ccc(F)c5[nH]ncc45)c(N)c(=O)[nH]c3c3nccnc23)C1` [Compound G12, (1r,3r)-3-[[8-Amino-7-(7-fluoro-1H-indazol-4-yl)-9-oxo-10H-pyrido[2,3-f]quinoxalin-5-yl]oxy]cyclobutane-1-carbonitrile]: the half-maximal inhibitory concentration (IC50) came to 0.95 nM.

The molecule `CC[C@H](C)Oc1cc2c(-c3ccc(F)c4[nH]ncc34)c(N)c(=O)[nH]c2c2nccnc12` [Compound G13, 8-Amino-5-[(2S)-butan-2-yl]oxy-7-(7-fluoro-1H-indazol-4-yl)-10H-pyrido[2,3-f]quinoxalin-9-one] yielded an IC50 of 0.49 nM.

Turning to `CC[C@@H](C)Oc1cc2c(-c3ccc(F)c4[nH]ncc34)c(N)c(=O)[nH]c2c2nccnc12` [Compound G14, 8-Amino-5-[(2R)-butan-2-yl]oxy-7-(7-fluoro-1H-indazol-4-yl)-10H-pyrido[2,3-f]quinoxalin-9-one], the IC50 amounted to 0.69 nM.

`CC(C)Oc1cc2c(-c3ccc(F)c4[nH]ncc34)c(N)c(=O)[nH]c2c2nccnc12` [Compound G15, 8-Amino-7-(7-fluoro-1H-indazol-4-yl)-5-propan-2-yloxy-10H-pyrido[2,3-f]quinoxalin-9-one] displayed an IC50 of 1.6 nM.

With `Nc1c(-c2ccc(F)c3[nH]ncc23)c2cc(O[C@H]3C[C@@H](F)C3)c3nccnc3c2[nH]c1=O` [Compound G17, 8-Amino-5-((1s,3s)-3-fluorocyclobutyl)oxy-7-(7-fluoro-1H-indazol-4-yl)-10H-pyrido[2,3-f]quinoxalin-9-one], the IC50 was 0.85 nM.

`Nc1c(-c2ccc(F)c3[nH]ncc23)c2cc(OCCC(F)F)c3nccnc3c2[nH]c1=O` [Compound G18, 8-Amino-5-(3,3-difluoropropoxy)-7-(7-fluoro-1H-indazol-4-yl)-10H-pyrido[2,3-f]quinoxalin-9-one] gave an IC50 of 0.79 nM.

Regarding `Nc1c(-c2ccc(F)c3[nH]ncc23)c2cc(Br)c3cnsc3c2[nH]c1=O` [Compound H1, 7-Amino-4-bromo-6-(7-fluoro-1H-indazol-4-yl)-9H-[1,2]thiazolo[4,5-h]quinolin-8-one], the 50% inhibitory concentration (IC50) turned out to be 6.2 nM.

`Cc1cc2c(-c3ccc(F)c4[nH]ncc34)c(N)c(=O)[nH]c2c2sncc12` [Compound H2, 7-Amino-6-(7-fluoro-1H-indazol-4-yl)-4-methyl-9H-[1.2]thiazolo[4,5-h]quinolin-8-one]: the IC50 was determined as 1.8 nM.

Consider `Cn1ncc2c(Br)cc3c(-c4ccc(F)c5[nH]ncc45)c(N)c(=O)[nH]c3c21` [Compound I1, 7-Amino-4-bromo-6-(7-fluoro-1H-indazol-4-yl)-1-methyl-9H-pyrazolo[4,3-h]quinolin-8-one], for which the half-maximal inhibitory concentration (IC50) worked out at 33 nM.

In turn, `Cc1cc2c(-c3ccc(F)c4[nH]ncc34)c(N)c(=O)[nH]c2c2c1cnn2C` [Compound I2, 7-Amino-6-(7-fluoro-1H-indazol-4-yl)-1,4-dimethyl-9H-pyrazolo[4,3-h]quinolin-8-one] returned an IC50 of 16 nM.

Take `Cn1ncc2c(C3CC3)cc3c(-c4ccc(F)c5[nH]ncc45)c(N)c(=O)[nH]c3c21` [Compound I3, 7-Amino-4-cyclopropyl-6-(7-fluoro-1H-indazol-4-yl)-1-methyl-9H-pyrazolo[4,3-h]quinolin-8-one]: the IC50 is 8 nM.

`Nc1c(-c2ccc(F)c3[nH]ncc23)c2cc(Br)c3cncnc3c2[nH]c1=O` [Compound J1, 8-Amino-5-bromo-7-(7-fluoro-1H-indazol-4-yl)-10H-pyrido[3,2-h]quinazolin-9-one] showed an IC50 of 7.3 nM.

`Cc1cc2c(-c3ccc(F)c4[nH]ncc34)c(N)c(=O)[nH]c2c2ncncc12` [Compound J2, 8-Amino-7-(7-fluoro-1H-indazol-4-yl)-5-methyl-10H-pyrido[3,2-h]quinazolin-9-one] came in with an IC50 of 3.1 nM.

In turn, `Nc1c(-c2ccc(F)c3[nH]ncc23)c2cc(C3CC3)c3cncnc3c2[nH]c1=O` [Compound J3, 8-Amino-5-cyclopropyl-7-(7-fluoro-1H-indazol-4-yl)-10H-pyrido[3,2-h]quinazolin-9-one] returned an IC50 of 3.5 nM.

As for `Nc1c(-c2ccc(F)c3[nH]ncc23)c2cc(Br)c3ncsc3c2[nH]c1=O` [Compound K1, 7-Amino-4-bromo-6-(7-fluoro-1H-indazol-4-yl)-9H-[1,3]thiazolo[4,5-h]quinolin-8-one], the IC50 stood at 1.7 nM.

`Cc1cc2c(-c3ccc(F)c4[nH]ncc34)c(N)c(=O)[nH]c2c2scnc12` [Compound K2, 7-Amino-6-(7-fluoro-1H-indazol-4-yl)-4-methyl-9H-[1,3]thiazolo[4,5-h]quinolin-8-one] yielded an IC50 of 1.2 nM.

`Nc1c(-c2ccc(F)c3[nH]ncc23)c2cc(C3CC3)c3ncsc3c2[nH]c1=O` [Compound K3, 7-Amino-4-cyclopropyl-6-(7-fluoro-1H-indazol-4-yl)-9H-[1,3]thiazolo[4,5-h]quinolin-8-one] showed an IC50 of 50 nM.

In turn, `Nc1c(-c2ccc(F)c3[nH]ncc23)c2cc(Br)c3ccsc3c2[nH]c1=O` [Compound L1, 7-Amino-4-bromo-6-(7-fluoro-1H-indazol-4-yl)-9H-thieno[3,2-h]quinolin-8-one] displayed an IC50 of 3 nM.

`Cc1cc2c(-c3ccc(F)c4[nH]ncc34)c(N)c(=O)[nH]c2c2sccc12` [Compound L2, 7-Amino-6-(7-fluoro-1H-indazol-4-yl)-4-methyl-9H-thieno[3,2-h]quinolin-8-one] had a half-inhibitory concentration (IC50) of 1.8 nM.

In turn, `Cn1cnc2c3[nH]c(=O)c(N)c(-c4ccc(F)c5[nH]ncc45)c3cc(Br)c21` [Compound M1, 7-Amino-4-bromo-6-(7-fluoro-1H-indazol-4-yl)-3-methyl-9H-imidazo[4,5-h]quinolin-8-one] gave an IC50 of 10 nM.

On to `Cc1cc2c(-c3ccc(F)c4[nH]ncc34)c(N)c(=O)[nH]c2c2ncn(C)c12` [Compound M2, 7-Amino-6-(7-fluoro-1H-indazol-4-yl)-3,4-dimethyl-9H-imidazo[4,5-h]quinolin-8-one], for which the IC50 worked out at 14 nM.

With `Cn1cnc2c3[nH]c(=O)c(N)c(-c4ccc(F)c5[nH]ncc45)c3ccc21` [Compound M3, 7-Amino-6-(7-fluoro-1H-indazol-4-yl)-3-methyl-9H-imidazo[4,5-h]quinolin-8-one], the half-maximal inhibitory concentration (IC50) was 99 nM.

The molecule `Nc1c(-c2ccc(F)c3[nH]ncc23)c2cc(Br)c3scnc3c2[nH]c1=O` [Compound N1, 7-Amino-4-bromo-6-(7-fluoro-1H-indazol-4-yl)-9H-[1,3]thiazolo[5,4-h]quinolin-8-one] had an IC50 of 5.3 nM.

With `Cc1nccc2c1c(Br)cc1c(-c3ccc(F)c4[nH]ncc34)c(N)c(=O)[nH]c12` [Compound P2, 3-Amino-6-bromo-4-(7-fluoro-1H-indazol-4-yl)-7-methyl-1H-1,8-phenanthrolin-2-one], the half-inhibitory concentration (IC50) came out at 13 nM.

`Nc1c(-c2ccc(F)c3[nH]ncc23)c2cc(Br)c3cnccc3c2[nH]c1=O` [Compound P3, 3-Amino-6-bromo-4-(7-fluoro-1H-indazol-4-yl)-1H-1,8-phenanthrolin-2-one] showed an IC50 of 12 nM.

`Nc1c(-c2cccc(O)c2)c2ccc3cnccc3c2[nH]c1=O` [Compound P5, 3-Amino-4-(3-hydroxyphenyl)-1H-1,8-phenanthrolin-2-one; hydrobromide]: the half-inhibitory concentration (IC50) came to 3.9 nM.

Molecule `Nc1c(-c2ccc(F)c3[nH]ncc23)c2cnc3ccccc3c2[nH]c1=O` [Compound R1, 3-Amino-4-(7-fluoro-1H-indazol-4-yl)-1H-benzo[h][1,6]naphthyridin-2-one] displayed an IC50 of 3.4 nM.

Molecule `Cc1cc2c(nn1)c(Br)cc1c(-c3ccc(F)c4[nH]ncc34)c(N)c(=O)[nH]c12` [Compound S1, 3-Amino-6-bromo-4-(7-fluoro-1H-indazol-4-yl)-9-methyl-1H-pyrido[2,3-f]cinnolin-2-one] gave an IC50 of 370 nM.

`COc1ccc2c(n1)c(OC)cc1c(-c3ccc(F)c4[nH]ncc34)c(N)c(=O)[nH]c12` [Compound T1, 3-Amino-4-(7-fluoro-1H-indazol-4-yl)-6,8-dimethoxy-1H-1,7-phenanthrolin-2-one]: the IC50 was 4.9 nM.

Turning to `COc1ccc2c(n1)c(OC(C)C)cc1c(-c3ccc(F)c4[nH]ncc34)c(N)c(=O)[nH]c12` [Compound T2, 3-Amino-4-(7-fluoro-1H-indazol-4-yl)-8-methoxy-6-propan-2-yloxy-1H-1,7-phenanthrolin-2-one], the IC50 worked out at 7.6 nM.

In turn, `CCOc1cc2c(-c3ccc(F)c4[nH]ncc34)c(N)c(=O)[nH]c2c2ccc(OC)nc12` [Compound T3, 3-Amino-6-ethoxy-4-(7-fluoro-1H-indazol-4-yl)-8-methoxy-1H-1,7-phenanthrolin-2-one] registered a concentration for half-maximal inhibition (IC50) of 6.1 nM.

The molecule `COc1cc2c(-c3ccc(F)c4[nH]ncc34)c(N)c(=O)[nH]c2c2ccc(=O)[nH]c12` [Compound T4, 3-Amino-4-(7-fluoro-1H-indazol-4-yl)-6-methoxy-1,7-dihydro-1,7-phenanthroline-2,8-dione] yielded an IC50 of 3.2 nM.

`CC(C)Oc1cc2c(-c3ccc(F)c4[nH]ncc34)c(N)c(=O)[nH]c2c2ccc(=O)[nH]c12` [Compound T5, 3-Amino-4-(7-fluoro-1H-indazol-4-yl)-6-propan-2-yloxy-1,7-dihydro-1,7-phenanthroline-2,8-dione] showed an IC50 of 3.5 nM.

For `CCOc1cc2c(-c3ccc(F)c4[nH]ncc34)c(N)c(=O)[nH]c2c2ccc(=O)[nH]c12` [Compound T6, 3-Amino-6-ethoxy-4-(7-fluoro-1H-indazol-4-yl)-1,7-dihydro-1,7-phenanthroline-2,8-dione], the half-inhibitory concentration (IC50) is 2.2 nM.

Values taken from patent publication US20260062412A1, “NITROGEN-CONTAINING HETEROCYCLIC COMPOUND HAVING MYT1 INHIBITORY ACTIVITY” (CHUGAI SEIYAKU KABUSHIKI KAISHA, priority 2023, published 2026).
